This experiment has as its system CEM cells HIV-1 protection, formazan growth assay. As to the kind of experiment: NCI AIDS Antiviral Assay. As to conditions: for IC50: measured here: growth of uninfected CEM cells. In a few lines:
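Protection of CEM cells against HIV-1 was scored from cell growth (soluble formazan) across five concentrations, with parallel uninfected cells. Lack of protection may reflect toxicity.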

Active and inactive are the calls of the source.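 How the source made its calls: active means compounds giving half or more protection of infected cells from virus-caused growth loss, again on retest; inactive means the rest.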

As for `CC1C(=O)OC2CCC3(C)C(=O)OC4OC5(c6ccoc6)CC1(O)C2(C)C43O5` (stereo not drawn), the EC50 is > 200 µM and the IC50 is > 200 µM.
`CC(C)Oc1cc2c(c3oc(=O)c4c(c13)CCC4)C(=O)[C@H](C)[C@@H](C)O2`: the EC50 was > 200 µM and the IC50 was found to be 39.8 µM.
Regarding `NC1OC(COC(=O)c2ccccc2)C(O)C(OC(=O)c2ccccc2)C1OC(=O)c1ccccc1` (stereo not drawn), the EC50 was > 200 µM and the IC50 came to 0.933 µM.
With `O=C(Nc1ccc(CC2=NCCCN2)cc1)c1ccc(C(=O)Nc2ccc(CC3=NCCCN3)cc2)cc1`, the EC50 was > 200 µM and the IC50 stood at 112 µM.
In the case of `CCc1c(C)c2cc3[nH]c(cc4nc(cc5nc(cc1[nH]2)C(C)=C5CCC(=O)OC)C(CCC(=O)OC)=C4C)c(C)c3CC`, the result was inactive.
`O=C1C2=Cc3ccccc3CCN2c2ccc([N+](=O)[O-])cc21`: the EC50 is > 200 µM and the IC50 amounted to 166 µM.
As for `CCC1=C(OC)c2nccc(C)c2C(=O)C1=O`, the result was inactive.
On to `Cc1cc(C)nc(NS(=O)(=O)c2ccc(NC(=O)c3ccc4nc5ccccc5c(Nc5ccc(S(=O)(=O)N=C(N)N)cc5)c4c3)cc2)n1`, for which the EC50 was 72.4 µM and the IC50 was determined as 141 µM.
With `CCC1CC2CC3c4[nH]c5ccc(OC)cc5c4CCN(C2)C13` (stereo not drawn), the result was inactive.
As to `Cc1ccc(N=C2SC(=S)N(CCC[N+](C)(C)C)C2=Nc2ccc(C)cc2)cc1`, the EC50 was > 200 µM and the concentration for half-maximal inhibition (IC50) came out at 14.1 µM.
The corresponding values for `O=S(=O)(O)c1cc(N=[N+]([O-])c2cc(S(=O)(=O)O)c3ccccc3c2)cc2ccccc12` are > 200 µM and 93.3 µM.
The corresponding values for `COc1cccc(C=O)c1[O-].COc1cccc(C=O)c1[O-].[Co+2]` are > 186 µM and 28.2 µM.
The corresponding values for `O=S1CSCS1` (stereo not drawn) are > 200 µM and > 200 µM.
Regarding `C=C1CC[N+]2(CC(C)C)CCCC12` (stereo not drawn), the EC50 is > 501 µM and the IC50 was > 501 µM.
On to `CC(=O)OCC1OC(n2c3c(c(-c4ccc(Cl)cc4)c(C#N)c2=S)CCCC3)C(OC(C)=O)C(OC(C)=O)C1OC(C)=O` (stereo not drawn), for which the EC50 is > 200 µM and the IC50 came out at 26.3 µM.
Turning to `COc1ccccc1Nc1nc(N)nc(N)c1N=O`, the EC50 was > 200 µM and the 50% inhibitory concentration (IC50) is > 200 µM.
On to `CN(C)c1ccc(/C=C2/N=C(c3ccccc3)OC2=O)cc1`, for which the EC50 was > 200 µM and the IC50 is 141 µM.
The corresponding values for `CC(=O)OC1C2CCC3CC2C2(SCCS2)C31` (stereo not drawn) are > 200 µM and > 200 µM.
The corresponding values for `O=c1[nH]c2c(cnn2-c2ccccc2)c(=O)n1O` are > 200 µM and > 200 µM.
The corresponding values for `COCn1cc(C2=C(C)C(=O)C(C)=C(C)C2=O)cn1` are > 200 µM and 6.03 µM.
With `O=C1c2c(nc3ccccc3c2-c2ccccc2)CN1Nc1ccccc1`, the EC50 was > 87.1 µM and the IC50 is > 87.1 µM.
As to `Cc1cc(=O)c2c([nH]1)NS(=O)(=O)NC2=O`, the EC50 was > 1480 µM and the IC50 is > 1480 µM.
Take `CC(C)=C1CC(C)(C)N=C1CCN1CCOCC1`: the EC50 is > 200 µM and the IC50 worked out at 2.95 µM.
The corresponding values for `OC(CCN1CCOCC1)c1ccc(Sc2ccccc2)cc1` (stereo not drawn) are > 200 µM and 36.3 µM.
The corresponding values for `OCCN1CCN(CCCN2c3ccccc3Sc3ccc(C(F)(F)F)cc32)CC1` are > 200 µM and 10.2 µM.
The corresponding values for `O=S1(=O)CC2(N3CCCC3)CCCCC21` (stereo not drawn) are > 1100 µM and 617 µM.
Take `CC1(Cl)CCC2(CC(Br)=CC3OC32C)CC1Br` (stereo not drawn): the result was inactive.
In the case of `CCOC(=O)CCC1(C)OC[C@H]2OC(n3cc(C)c(=O)[nH]c3=O)C[C@H]2N1O` (stereo partly drawn), the EC50 is > 200 µM and the IC50 was > 200 µM.
`CC(=O)OC1COC(N2c3ccccc3[C@@H]3CCc4c([nH]c5ccccc45)[C@@H]32)C(OC(C)=O)C1OC(C)=O` (mixture of isomers): the EC50 is > 155 µM and the IC50 was found to be 19.5 µM.
As for `Cc1nn(C(=O)CC(=O)Nc2ccccc2)c(C)c1N=Nc1ccccc1F`, the result was inactive.
For `O[Si](c1ccc(C(F)(F)F)cc1)(c1cccc(C(F)(F)F)c1)c1cccc(C(F)(F)F)c1`, the EC50 is > 200 µM and the IC50 was 10.5 µM.
As for `CCCCCCCCCCCCCC(=O)NCC(OCC)OCC`, the result was inactive.
On to `N#Cc1c2n(c3c(=O)n(-c4ccccc4)c(=S)[nH]c13)CCCCC2`, for which the EC50 is > 151 µM and the IC50 is > 151 µM.
On to `CN(C)C1C(=O)C(C(=O)NCN2CCCC2)=C(O)C2(O)C(=O)C3=C(O)c4c(O)cccc4C(C)(O)C3CC12` (stereo not drawn), for which the EC50 is > 63.1 µM and the half-maximal inhibitory concentration (IC50) was found to be 53.7 µM.
In the case of `O=c1[nH]cc(N=Nc2ccc(S(=O)(=O)Nc3nccs3)cc2)cc1O`, the EC50 is > 195 µM and the IC50 amounted to 170 µM.
The matching figures for `COC(=O)[C@H](CC(C)C)NC(=O)[C@H](Cc1ccccc1)N1CC2C=CC1C2` (stereo partly drawn): > 676 µM and > 676 µM.
In the case of `O=[N+]([O-])c1ccc(SSc2ccc([N+](=O)[O-])cn2)nc1`, the EC50 was > 200 µM and the IC50 was 9.12 µM.
The corresponding values for `Cc1cc(N(CCC#N)CCC#N)ccc1/C(Sc1ccccc1)=C(\NC(=O)/C=C/c1ccccc1)C(=O)Sc1ccccc1` are > 21.4 µM and 12.6 µM.
The matching figures for `N#Cc1cc2c(n(NS(=O)(=O)c3ccccc3)c1=O)CCCCC2`: > 200 µM and > 200 µM.
As for `Cc1ccccc1NC(=O)C(=O)C(C#N)c1ccccc1C` (stereo not drawn), the EC50 was > 17.8 µM and the 50% inhibitory concentration (IC50) was > 17.8 µM.
For `O=C(O)CN1C(=O)c2ccc(NC(=O)C(=O)O)cc2S1(=O)=O`, the EC50 is > 200 µM and the IC50 is > 200 µM.
Consider `O=C1NC(N2CCOCC2)=N/C1=C\c1ccc(O)cc1`, for which the EC50 was > 200 µM and the half-inhibitory concentration (IC50) was determined as 105 µM.
As to `CCOC(=O)c1c(N)sc2c1C(C(=O)OCC)CCC2` (stereo not drawn), the EC50 is > 200 µM and the half-maximal inhibitory concentration (IC50) is 112 µM.
The matching figures for `COc1cc2c(c([N+](=O)[O-])c1)NC(=O)C(c1ccccc1)S2` (stereo not drawn): > 200 µM and 110 µM.
The corresponding values for `CC(C)N1[C@@H]2CCCC[C@H]2N(C(C)C)[P+]1=O` are > 200 µM and > 200 µM.
The matching figures for `COC(=O)C1=C2c3ccccc3-c3ccccc3C2(O)C(C(=O)OC)C1=O` (stereo not drawn): > 1.45 µM and > 1.45 µM.
As for `CC(Oc1ccc(Oc2cnc3ccc(Cl)cc3n2)cc1)C(=O)O` (stereo not drawn), the EC50 is > 141 µM and the IC50 is 17.4 µM.
Turning to `CCNCCNC(=O)c1ccc(Br)cc1`, the result was inactive.
Consider `CCO[C@@H]1CCC(S(=O)c2ccc(C)cc2)=CO1` (stereo partly drawn), for which the EC50 was > 200 µM and the IC50 was > 200 µM.
On to `C=C(COC(=O)CC1(CC(=O)O)CCCC1)[C@@H]1CC[C@]2(COC(=O)CC3(CC(=O)O)CCCC3)CC[C@]3(C)[C@H](CC[C@@H]4[C@@]5(C)CC[C@H](OC(=O)CC6(CC(=O)O)CCCC6)C(C)(C)[C@@H]5CC[C@]43C)[C@@H]12`, for which the EC50 was > 200 µM and the IC50 came to 8.71 µM.
The matching figures for `O=c1c(Sc2c(SCSc3cnc4ccccc4c3Sc3c[nH]c4ccccc4c3=O)cnc3ccccc23)c[nH]c2ccccc12`: > 100 µM and > 100 µM.
For the compound `Cc1c(Cl)cccc1N=NC(=O)NNc1cccc(Cl)c1C`, the EC50 was > 200 µM and the IC50 turned out to be 33.1 µM.
The corresponding values for `O=[p+]1c2ccccc2[nH]c2ccccc21` are > 200 µM and 56.2 µM.
As for `CC(CN1CCN(CC(C)Nc2ccnc3cc(Cl)ccc23)CC1)Nc1ccnc2cc(Cl)ccc12` (stereo not drawn), the EC50 is > 50.1 µM and the IC50 was > 50.1 µM.
For `CCC(C)C(=O)c1c(O)c(CC2OC2(C)C)c(O)c2c(C(O)CC)cc(=O)oc12` (stereo not drawn), the EC50 was > 200 µM and the 50% inhibitory concentration (IC50) stood at 5.62 µM.
`CN(C)CCNC(=O)c1ccc(Cl)c2c(Nc3ccc(S(N)(=O)=O)cc3)c3ccccc3nc12`: the outcome was inactive.
`COc1cnc([C@H]2CCC3[C@@H]4CC=C5C[C@@H](OC(=O)CCC(=O)O)CC[C@]5(C)C4CC[C@@]32C)s1` (stereo partly drawn): the EC50 is > 51.3 µM and the IC50 came to 29.5 µM.
The corresponding values for `CCOC(=O)Nc1ccc2nc(Sc3ccc(C)cc3)sc2c1` are > 20.9 µM and 1.23 µM.
Take `S=c1n(-c2ccc(Cl)cc2)c2nc3ccccc3nc(/c2=N\Nc2cc(Cl)ccc2Cl)n1-c1ccc(Br)cc1`: the EC50 was > 75.9 µM and the IC50 was 19.5 µM.
The corresponding values for `CSC1=NC(=O)CCN1C1OCC(OC(C)=O)C(OC(C)=O)C1OC(C)=O` (stereo not drawn) are > 200 µM and 105 µM.
Regarding `CC(=O)OCC12CCC(C)=CC1OC1C(O)C(OC(C)=O)C2(C)C12CO2` (stereo not drawn), the EC50 was > 3.39 µM and the IC50 was 0.00331 µM.
Turning to `O=C(Nn1c(-c2ccccc2)nc2ccccc2c1=O)c1ccc(CS)cc1`, the result was inactive.
Turning to `CCOC(=O)CCC(NC(=O)c1ccc(CNc2nc3ccccc3nc2C(=O)OCC)cc1)C(=O)OCC` (stereo not drawn), the EC50 is > 200 µM and the 50% inhibitory concentration (IC50) is > 200 µM.
`C[N+](C)(C)CC(=O)N/N=c1\cc(C(=O)Nc2ccc(N=O)cc2C#N)oc2cc(O)ccc12`: the EC50 was > 372 µM and the IC50 was > 372 µM.
As to `c1ccc(CN2C3C4N(Cc5ccccc5)C2C2N(Cc5ccccc5)C(C(N2Cc2ccccc2)N4Cc2ccccc2)N3Cc2ccccc2)cc1`, the EC50 is > 100 µM and the IC50 is > 100 µM.
For `Nc1cccc(S(=O)(=O)NCC(=O)O)c1`, the outcome was inactive.
On to `COCOc1c(C(OCOC)c2cnc(Sc3ccccc3)n2C)ccc(OC)c1OC` (stereo not drawn), for which the EC50 is > 200 µM and the IC50 amounted to 110 µM.
The corresponding values for `O=C1CN(c2cccc(Cl)c2)C(=O)CN1CCN1CC(=O)N(c2cccc(Cl)c2)CC1=O` are > 200 µM and > 200 µM.
The corresponding values for `Cc1nc2cc(Nc3ccccc3C(=O)O)ccc2s1` are > 631 µM and 158 µM.

The term EC50 denotes the concentration needed to bring the measured effect to its halfway point. By IC50 is commonly meant the concentration that gives 50% inhibition. Read a high IC50 as lower potency.

These data come from PubChem BioAssay AID179 (DTP/NCI, 2004).
